Results as given in PubChem BioAssay (NCI).
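Following 48 hours of exposure in 96-well plates, responses at five concentrations were used to interpolate endpoints linearly. TGI: concentration producing complete growth inhibition.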

What was measured:
Experiment in all cases: growth of human tumour cells (NCI), 48 h
HOP-62 NSCLC = tested on: HOP-62 NSCLC
IGROV1 ovarian = tested on: IGROV1 ovarian
A498 renal = tested on: A498 renal
OVCAR-3 ovarian = tested on: OVCAR-3 ovarian
SF-268 CNS = tested on: SF-268 CNS
MOLT-4 leukemia = tested on: MOLT-4 leukemia
NCI-H460 lung = tested on: NCI-H460 lung
UACC-62 melanoma = tested on: UACC-62 melanoma
KM12 colon = tested on: KM12 colon
A549 NSCLC = tested on: A549 NSCLC
MDA-MB-231 breast = tested on: MDA-MB-231 breast
HT29 colon = tested on: HT29 colon
786-0 renal = tested on: 786-0 renal
SK-MEL-28 melanoma = tested on: SK-MEL-28 melanoma
MDA-N = tested on: MDA-N
HCC-2998 colon = tested on: HCC-2998 colon
UACC-257 melanoma = tested on: UACC-257 melanoma
NCI-H23 lung = tested on: NCI-H23 lung
EKVX NSCLC = tested on: EKVX NSCLC
HS 578T breast = tested on: HS 578T breast
CAKI-1 renal = tested on: CAKI-1 renal
SNB-75 CNS = tested on: SNB-75 CNS
NCI-H226 lung = tested on: NCI-H226 lung
HCT-15 colon = tested on: HCT-15 colon
SW-620 colon = tested on: SW-620 colon
K-562 leukemia = tested on: K-562 leukemia
OVCAR-4 ovarian = tested on: OVCAR-4 ovarian
SF-295 CNS = tested on: SF-295 CNS
UO-31 renal = tested on: UO-31 renal
U251 CNS = tested on: U251 CNS
ACHN renal = tested on: ACHN renal
NCI/ADR-RES ovarian = tested on: NCI/ADR-RES ovarian
MDA-MB-435 = tested on: MDA-MB-435
SK-MEL-2 melanoma = tested on: SK-MEL-2 melanoma
LOX IMVI melanoma = tested on: LOX IMVI melanoma
MALME-3M melanoma = tested on: MALME-3M melanoma
BT-549 breast = tested on: BT-549 breast
OVCAR-5 ovarian = tested on: OVCAR-5 ovarian
DU-145 prostate = tested on: DU-145 prostate
HOP-92 NSCLC = tested on: HOP-92 NSCLC
SR leukemia = tested on: SR leukemia
RXF 393 renal = tested on: RXF 393 renal
HCT-116 colon = tested on: HCT-116 colon
SK-OV-3 ovarian = tested on: SK-OV-3 ovarian
RPMI-8226 leukemia = tested on: RPMI-8226 leukemia
HL-60(TB) leukemia = tested on: HL-60(TB) leukemia
NCI-H522 lung = tested on: NCI-H522 lung
T-47D breast = tested on: T-47D breast
SN12C renal = tested on: SN12C renal
SK-MEL-5 melanoma = tested on: SK-MEL-5 melanoma
TK-10 renal = tested on: TK-10 renal
SNB-19 CNS = tested on: SNB-19 CNS
SF-539 CNS = tested on: SF-539 CNS
MCF7 breast = tested on: MCF7 breast
COLO 205 colon = tested on: COLO 205 colon
OVCAR-8 ovarian = tested on: OVCAR-8 ovarian
PC-3 prostate = tested on: PC-3 prostate
M14 melanoma = tested on: M14 melanoma
CCRF-CEM leukemia = tested on: CCRF-CEM leukemia

Oc1ccc(-c2nc3ccc4ccccc4c3c3c2CCCC3)c(O)c1
TGI (HOP-62 NSCLC): > 100 µM
TGI (IGROV1 ovarian): > 56.5 µM
TGI (A498 renal): > 100 µM
TGI (OVCAR-3 ovarian): > 100 µM
TGI (SF-268 CNS): > 72 µM
TGI (MOLT-4 leukemia): > 100 µM
TGI (NCI-H460 lung): > 100 µM
TGI (UACC-62 melanoma): > 50.6 µM
TGI (KM12 colon): > 100 µM
TGI (A549 NSCLC): > 100 µM
TGI (MDA-MB-231 breast): 37 µM
TGI (HT29 colon): 25.4 µM
TGI (786-0 renal): 24 µM
TGI (SK-MEL-28 melanoma): > 50.6 µM
TGI (MDA-N): 39.3 µM
TGI (HCC-2998 colon): > 100 µM
TGI (UACC-257 melanoma): > 100 µM
TGI (NCI-H23 lung): > 100 µM
TGI (EKVX NSCLC): > 100 µM
TGI (HS 578T breast): 88.9 µM
TGI (CAKI-1 renal): > 100 µM
TGI (SNB-75 CNS): > 100 µM
TGI (NCI-H226 lung): > 100 µM
TGI (HCT-15 colon): > 100 µM
TGI (SW-620 colon): > 68 µM
TGI (K-562 leukemia): > 100 µM
TGI (OVCAR-4 ovarian): > 100 µM
TGI (SF-295 CNS): > 74.1 µM
TGI (UO-31 renal): > 100 µM
TGI (U251 CNS): > 40.5 µM
TGI (ACHN renal): 85 µM
TGI (NCI/ADR-RES ovarian): > 100 µM
TGI (MDA-MB-435): > 63.7 µM
TGI (SK-MEL-2 melanoma): 37.6 µM
TGI (LOX IMVI melanoma): > 100 µM
TGI (MALME-3M melanoma): > 59.1 µM
TGI (BT-549 breast): > 100 µM
TGI (OVCAR-5 ovarian): 49.1 µM
TGI (DU-145 prostate): > 100 µM
TGI (HOP-92 NSCLC): > 100 µM
TGI (SR leukemia): > 100 µM
TGI (RXF 393 renal): > 84.3 µM
TGI (HCT-116 colon): 22.6 µM
TGI (SK-OV-3 ovarian): > 100 µM
TGI (RPMI-8226 leukemia): > 100 µM
TGI (HL-60(TB) leukemia): > 100 µM
TGI (NCI-H522 lung): 41.1 µM
TGI (T-47D breast): > 100 µM
TGI (SN12C renal): 32.8 µM
TGI (SK-MEL-5 melanoma): 27.1 µM
TGI (TK-10 renal): 97.9 µM
TGI (SNB-19 CNS): 71.2 µM
TGI (SF-539 CNS): > 73.2 µM
TGI (MCF7 breast): > 69.8 µM
TGI (COLO 205 colon): 23.9 µM
TGI (OVCAR-8 ovarian): > 68.1 µM
TGI (PC-3 prostate): > 100 µM
TGI (M14 melanoma): 35.9 µM

CN(/N=C(\C(=O)O)c1ccccc1)C1=NCCCCN1
TGI (HOP-62 NSCLC): > 100 µM
TGI (IGROV1 ovarian): > 100 µM
TGI (A498 renal): > 100 µM
TGI (OVCAR-3 ovarian): > 100 µM
TGI (SF-268 CNS): > 100 µM
TGI (MOLT-4 leukemia): > 100 µM
TGI (NCI-H460 lung): > 100 µM
TGI (UACC-62 melanoma): > 100 µM
TGI (KM12 colon): > 100 µM
TGI (A549 NSCLC): > 100 µM
TGI (MDA-MB-231 breast): > 100 µM
TGI (HT29 colon): > 100 µM
TGI (786-0 renal): > 100 µM
TGI (SK-MEL-28 melanoma): > 100 µM
TGI (MDA-N): > 100 µM
TGI (HCC-2998 colon): > 100 µM
TGI (UACC-257 melanoma): > 100 µM
TGI (NCI-H23 lung): > 100 µM
TGI (EKVX NSCLC): > 100 µM
TGI (HS 578T breast): > 100 µM
TGI (CAKI-1 renal): > 100 µM
TGI (CCRF-CEM leukemia): > 100 µM
TGI (SNB-75 CNS): > 100 µM
TGI (NCI-H226 lung): > 100 µM
TGI (HCT-15 colon): > 100 µM
TGI (SW-620 colon): > 100 µM
TGI (K-562 leukemia): > 100 µM
TGI (OVCAR-4 ovarian): > 100 µM
TGI (SF-295 CNS): > 100 µM
TGI (UO-31 renal): > 100 µM
TGI (U251 CNS): > 100 µM
TGI (ACHN renal): > 100 µM
TGI (NCI/ADR-RES ovarian): > 100 µM
TGI (MDA-MB-435): > 100 µM
TGI (SK-MEL-2 melanoma): > 100 µM
TGI (LOX IMVI melanoma): > 100 µM
TGI (MALME-3M melanoma): > 100 µM
TGI (BT-549 breast): > 100 µM
TGI (OVCAR-5 ovarian): > 100 µM
TGI (DU-145 prostate): > 100 µM
TGI (HOP-92 NSCLC): > 100 µM
TGI (SR leukemia): > 100 µM
TGI (RXF 393 renal): > 100 µM
TGI (HCT-116 colon): > 100 µM
TGI (SK-OV-3 ovarian): > 100 µM
TGI (RPMI-8226 leukemia): > 100 µM
TGI (HL-60(TB) leukemia): > 100 µM
TGI (NCI-H522 lung): > 100 µM
TGI (T-47D breast): > 100 µM
TGI (SN12C renal): > 100 µM
TGI (SK-MEL-5 melanoma): > 100 µM
TGI (TK-10 renal): > 100 µM
TGI (SF-539 CNS): > 100 µM
TGI (MCF7 breast): > 100 µM
TGI (COLO 205 colon): > 100 µM
TGI (OVCAR-8 ovarian): > 100 µM
TGI (PC-3 prostate): > 100 µM

COc1ccc2c(c1)C(N)=C(c1ccccc1OC)C2=O
TGI (HOP-62 NSCLC): > 100 µM
TGI (IGROV1 ovarian): > 100 µM
TGI (A498 renal): > 100 µM
TGI (OVCAR-3 ovarian): > 100 µM
TGI (SF-268 CNS): > 100 µM
TGI (MOLT-4 leukemia): > 100 µM
TGI (NCI-H460 lung): > 100 µM
TGI (UACC-62 melanoma): > 100 µM
TGI (KM12 colon): > 100 µM
TGI (MDA-MB-231 breast): > 100 µM
TGI (HT29 colon): > 100 µM
TGI (786-0 renal): > 100 µM
TGI (SK-MEL-28 melanoma): > 100 µM
TGI (MDA-N): > 100 µM
TGI (HCC-2998 colon): > 100 µM
TGI (UACC-257 melanoma): > 100 µM
TGI (NCI-H23 lung): > 100 µM
TGI (EKVX NSCLC): > 100 µM
TGI (HS 578T breast): > 100 µM
TGI (CAKI-1 renal): > 100 µM
TGI (CCRF-CEM leukemia): > 100 µM
TGI (SNB-75 CNS): > 100 µM
TGI (NCI-H226 lung): > 100 µM
TGI (HCT-15 colon): > 100 µM
TGI (SW-620 colon): > 100 µM
TGI (K-562 leukemia): > 100 µM
TGI (OVCAR-4 ovarian): > 100 µM
TGI (SF-295 CNS): > 100 µM
TGI (UO-31 renal): > 100 µM
TGI (U251 CNS): > 100 µM
TGI (ACHN renal): > 100 µM
TGI (NCI/ADR-RES ovarian): > 100 µM
TGI (MDA-MB-435): > 100 µM
TGI (SK-MEL-2 melanoma): > 100 µM
TGI (LOX IMVI melanoma): > 100 µM
TGI (MALME-3M melanoma): > 100 µM
TGI (BT-549 breast): > 100 µM
TGI (OVCAR-5 ovarian): > 100 µM
TGI (DU-145 prostate): > 100 µM
TGI (HOP-92 NSCLC): > 100 µM
TGI (SR leukemia): > 100 µM
TGI (RXF 393 renal): > 100 µM
TGI (HCT-116 colon): > 100 µM
TGI (SK-OV-3 ovarian): > 100 µM
TGI (RPMI-8226 leukemia): > 100 µM
TGI (HL-60(TB) leukemia): > 100 µM
TGI (T-47D breast): > 100 µM
TGI (SN12C renal): > 100 µM
TGI (TK-10 renal): > 100 µM
TGI (SNB-19 CNS): > 100 µM
TGI (SF-539 CNS): > 100 µM
TGI (MCF7 breast): > 100 µM
TGI (COLO 205 colon): > 100 µM
TGI (OVCAR-8 ovarian): > 100 µM
TGI (PC-3 prostate): > 100 µM
TGI (M14 melanoma): > 100 µM
